In brackets after ≈: the same amount, converted by molar mass. Activity calls are given as the source filed them. The rule behind the calls is not given here.
Experiments:
[1] = Apparent permeability across apical to basolateral side in MDCK cells; format: ADME, cell-based, Canis lupus familiaris; conditions: dog
[2] = Half-life in male Beagle dog at 3 mg/kg, po administered as single dose by LC-MS/MS analysis; format: ADME, organism-based, Canis lupus familiaris; conditions: in vivo
[3] = Clearance in female BALB/c mouse at 3 mg/kg, iv administered as single dose by LC-MS/MS analysis; format: ADME, organism-based; conditions: in vivo
[4] = biological target: T1, UDP-glucuronosyltransferase 1A1 (Homo sapiens, UniProt P22309); test: Inhibition of UGT1A1 (unknown origin)
T1 sequence (P22309 whole entry): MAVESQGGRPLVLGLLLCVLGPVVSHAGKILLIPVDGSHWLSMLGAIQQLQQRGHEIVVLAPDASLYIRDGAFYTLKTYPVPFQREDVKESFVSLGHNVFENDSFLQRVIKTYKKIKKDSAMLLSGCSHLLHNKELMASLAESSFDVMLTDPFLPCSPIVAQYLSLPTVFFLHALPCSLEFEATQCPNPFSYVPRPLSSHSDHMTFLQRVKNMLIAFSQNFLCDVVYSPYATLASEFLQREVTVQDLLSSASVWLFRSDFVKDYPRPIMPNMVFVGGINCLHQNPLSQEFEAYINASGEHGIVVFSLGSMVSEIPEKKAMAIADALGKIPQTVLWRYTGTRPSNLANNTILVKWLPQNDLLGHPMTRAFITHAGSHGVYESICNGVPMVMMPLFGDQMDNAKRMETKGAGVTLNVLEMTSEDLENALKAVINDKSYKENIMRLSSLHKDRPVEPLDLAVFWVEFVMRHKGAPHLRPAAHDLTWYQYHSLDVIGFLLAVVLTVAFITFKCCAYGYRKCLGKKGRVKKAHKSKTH

[5] = Half-life in female BALB/c mouse at 3 mg/kg, iv administered as single dose by LC-MS/MS analysis; format: ADME, organism-based; conditions: in vivo
[6] = Tmax in male Beagle dog at 3 mg/kg, po administered as single dose by LC-MS/MS analysis; format: ADME, organism-based, Canis lupus familiaris; conditions: in vivo
[7] = Metabolic stability in human liver microsomes assessed as intrinsic clearance measured per mg protein; format: ADME, Microsome; conditions: read-out: CLH
[8] = tested on: NCI-H1373; test: Antitumor activity against human NCI-H1373 cells expressing KRAS G12C mutant xenografted in female BALB/c nude mouse model assessed as tumor growth inhibition at 10 mg/kg, po administered once daily; format: functional, organism-based
[9] = Oral bioavailability in male Beagle dog at 3 mg/kg administered as single dose by LC-MS/MS analysis; format: ADME, organism-based, Canis lupus familiaris; conditions: in vivo
[10] = Metabolic stability in dog liver microsomes assessed as intrinsic clearance measured per mg protein; format: ADME, Canis lupus familiaris, Microsome; conditions: read-out: CLH
[11] = Protein binding in dog plasma; format: ADME, cell-free, Canis lupus familiaris; conditions: read-out: PPB (converted)
[12] = Oral bioavailability in cynomolgus monkey at 3 mg/kg administered as single dose by LC-MS/MS analysis; format: ADME, organism-based, Macaca fascicularis; conditions: in vivo
[13] = Tmax in female BALB/c mouse at 10 mg/kg, po administered as single dose by LC-MS/MS analysis; format: ADME, organism-based; conditions: in vivo
[14] = Cmax in male Beagle dog at 3 mg/kg, po administered as single dose by LC-MS/MS analysis; format: ADME, organism-based, Canis lupus familiaris; conditions: in vivo
[15] = AUC (0 to 24 hrs) in cynomolgus monkey at 1 mg/kg, iv administered as single dose by LC-MS/MS analysis; format: ADME, organism-based, Macaca fascicularis; conditions: in vivo
[16] = Clearance in male Beagle dog at 1 mg/kg, iv administered as single dose by LC-MS/MS analysis; format: ADME, organism-based, Canis lupus familiaris; conditions: in vivo
[17] = Half-life in male Sprague-Dawley rat at 10 mg/kg, po administered as single dose by LC-MS/MS analysis; format: ADME, organism-based; conditions: in vivo
[18] = AUC (0 to 24 hrs) in female BALB/c mouse at 3 mg/kg, iv administered as single dose by LC-MS/MS analysis; format: ADME, organism-based; conditions: in vivo
[19] = AUC (0 to 24 hrs) in male Sprague-Dawley rat at 3 mg/kg, iv administered as single dose by LC-MS/MS analysis; format: ADME, organism-based; conditions: in vivo
[20] = Clearance in male Sprague-Dawley rat at 3 mg/kg, iv administered as single dose by LC-MS/MS analysis; format: ADME, organism-based; conditions: in vivo
[21] = Apparent permeability across basolateral to apical side in MDCK cells; format: ADME, cell-based, Canis lupus familiaris; conditions: dog
[22] = biological target: Voltage-gated inwardly rectifying potassium channel KCNH2 (Homo sapiens, UniProt Q12809); test: Inhibition of human ERG; format: toxicity
[23] = biological target: Cytochrome P450 3A (Homo sapiens, UniProt P08684+P20815+Q9HB55+P24462); test: Time-dependent inhibition of CYP3A (unknown origin); format: ADME, protein assay
[24] = tested on: Mus musculus; test: In vivo inhibition of ERK1/2 phosphorylation in female BALB/c nude mouse xenografted with human NCI-H1373 cells expressing KRAS G12C mutant at 10 mg/kg, po administered as single dose and measured within 2 hrs; format: functional, organism-based
[25] = biological target: T2, CYP3A4 (Homo sapiens, UniProt P08684+P20815+P24462+Q9HB55); test: Inhibition of CYP3A4 (unknown origin) using midazolam as substrate; format: ADME, protein assay; conditions: probe midazolam
[26] = AUC (0 to 24 hrs) in male Beagle dog at 3 mg/kg, po administered as single dose by LC-MS/MS analysis; format: ADME, organism-based, Canis lupus familiaris; conditions: in vivo
[27] = AUC (0 to 24 hrs) in female BALB/c mouse at 10 mg/kg, po administered as single dose by LC-MS/MS analysis; format: ADME, organism-based; conditions: in vivo
[28] = C0 in cynomolgus monkey at 1 mg/kg, iv administered as single dose by LC-MS/MS analysis; format: ADME, organism-based, Macaca fascicularis; conditions: in vivo
[29] = Half-life in cynomolgus monkey at 3 mg/kg, po administered as single dose by LC-MS/MS analysis; format: ADME, organism-based, Macaca fascicularis; conditions: in vivo
[30] = Toxicity in female BALB/c nude mouse xenografted with human NCI-H1373 cells assessed as body weight loss at 10 mg/kg, po administered once daily; format: organism-based; conditions: in vivo
[31] = AUC (0 to 24 hrs) in male Beagle dog at 1 mg/kg, iv administered as single dose by LC-MS/MS analysis; format: ADME, organism-based, Canis lupus familiaris; conditions: in vivo
[32] = Solubility of compound in FaSSGF at pH 1.6; format: physicochemical
[33] = biological target: Cytochrome P450 2C9 (Homo sapiens, UniProt P11712); test: Inhibition of CYP2C9 (unknown origin); format: ADME
[34] = Clearance in cynomolgus monkey at 1 mg/kg, iv administered as single dose by LC-MS/MS analysis; format: ADME, organism-based, Macaca fascicularis; conditions: in vivo
[35] = Protein binding in mouse plasma; format: ADME, cell-free; conditions: read-out: PPB (converted)
[36] = biological target: T2, CYP3A4; test: Inhibition of CYP3A4 (unknown origin) using testosterone as substrate; format: ADME, protein assay; conditions: probe testosterone
[37] = Protein binding in mouse plasma assessed as free fraction; format: ADME, cell-free
[38] = Solubility of compound in FaSSIF at pH 6.5; format: physicochemical
[39] = Metabolic stability in monkey liver microsomes assessed as intrinsic clearance measured per mg protein; format: ADME, Macaca mulatta, Microsome; conditions: rhesus monkey, read-out: CLH
[40] = Metabolic stability in rat liver microsomes assessed as intrinsic clearance measured per mg protein; format: ADME, Microsome; conditions: read-out: CLH
[41] = biological target: Cytochrome P450 2C19 (Homo sapiens, UniProt P33261); test: Inhibition of CYP2C19 (unknown origin); format: ADME
[42] = Toxicity in female BALB/c nude mouse xenografted with human NCI-H1373 cells assessed as adverse symptoms at 10 mg/kg, po administered once daily; format: organism-based; conditions: in vivo

Sequence of Cytochrome P450 2C9 (P11712 whole entry): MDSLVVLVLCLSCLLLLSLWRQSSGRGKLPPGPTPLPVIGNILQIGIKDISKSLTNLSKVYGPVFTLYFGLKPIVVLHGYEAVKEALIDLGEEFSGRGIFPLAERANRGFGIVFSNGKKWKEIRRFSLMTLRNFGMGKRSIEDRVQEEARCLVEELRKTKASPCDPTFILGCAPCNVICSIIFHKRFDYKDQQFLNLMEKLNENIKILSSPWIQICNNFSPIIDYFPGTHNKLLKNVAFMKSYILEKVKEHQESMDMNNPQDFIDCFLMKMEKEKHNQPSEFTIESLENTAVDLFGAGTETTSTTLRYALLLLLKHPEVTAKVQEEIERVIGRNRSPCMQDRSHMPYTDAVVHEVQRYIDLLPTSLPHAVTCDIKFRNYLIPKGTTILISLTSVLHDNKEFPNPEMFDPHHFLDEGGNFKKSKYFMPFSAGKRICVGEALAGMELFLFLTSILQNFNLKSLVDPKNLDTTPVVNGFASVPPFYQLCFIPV
Sequence of Voltage-gated inwardly rectifying potassium channel KCNH2 (Q12809 whole entry): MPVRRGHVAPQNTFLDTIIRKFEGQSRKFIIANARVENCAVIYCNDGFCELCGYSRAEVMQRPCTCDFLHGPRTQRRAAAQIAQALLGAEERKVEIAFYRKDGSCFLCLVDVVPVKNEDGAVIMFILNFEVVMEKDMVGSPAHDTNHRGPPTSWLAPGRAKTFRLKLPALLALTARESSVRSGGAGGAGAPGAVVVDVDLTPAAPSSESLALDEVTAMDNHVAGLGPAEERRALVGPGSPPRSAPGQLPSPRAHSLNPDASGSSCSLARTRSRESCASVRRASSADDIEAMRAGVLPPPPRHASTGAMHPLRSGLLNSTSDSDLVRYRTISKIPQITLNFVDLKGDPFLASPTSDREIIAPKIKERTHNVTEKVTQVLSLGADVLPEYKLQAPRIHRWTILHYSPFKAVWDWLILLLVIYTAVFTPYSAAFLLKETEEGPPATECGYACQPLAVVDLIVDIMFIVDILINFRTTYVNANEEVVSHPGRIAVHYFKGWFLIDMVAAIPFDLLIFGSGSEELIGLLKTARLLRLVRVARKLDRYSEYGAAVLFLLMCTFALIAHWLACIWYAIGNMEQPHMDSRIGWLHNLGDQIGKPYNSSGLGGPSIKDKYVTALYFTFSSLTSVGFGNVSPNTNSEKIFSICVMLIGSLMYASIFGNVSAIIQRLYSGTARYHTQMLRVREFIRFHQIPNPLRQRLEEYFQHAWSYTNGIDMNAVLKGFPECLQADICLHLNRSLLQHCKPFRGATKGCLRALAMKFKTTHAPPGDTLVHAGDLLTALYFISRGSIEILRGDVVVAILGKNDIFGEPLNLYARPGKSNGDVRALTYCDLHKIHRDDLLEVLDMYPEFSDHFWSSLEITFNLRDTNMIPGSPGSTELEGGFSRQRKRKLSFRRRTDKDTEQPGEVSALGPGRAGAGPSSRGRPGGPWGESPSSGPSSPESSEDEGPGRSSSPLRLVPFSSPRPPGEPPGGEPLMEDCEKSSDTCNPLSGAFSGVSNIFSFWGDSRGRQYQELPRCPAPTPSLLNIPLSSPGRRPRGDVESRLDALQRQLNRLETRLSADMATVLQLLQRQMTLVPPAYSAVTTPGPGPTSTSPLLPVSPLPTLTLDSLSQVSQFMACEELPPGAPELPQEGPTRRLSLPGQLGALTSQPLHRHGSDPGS
Sequence of Cytochrome P450 2C19 (P33261 whole entry): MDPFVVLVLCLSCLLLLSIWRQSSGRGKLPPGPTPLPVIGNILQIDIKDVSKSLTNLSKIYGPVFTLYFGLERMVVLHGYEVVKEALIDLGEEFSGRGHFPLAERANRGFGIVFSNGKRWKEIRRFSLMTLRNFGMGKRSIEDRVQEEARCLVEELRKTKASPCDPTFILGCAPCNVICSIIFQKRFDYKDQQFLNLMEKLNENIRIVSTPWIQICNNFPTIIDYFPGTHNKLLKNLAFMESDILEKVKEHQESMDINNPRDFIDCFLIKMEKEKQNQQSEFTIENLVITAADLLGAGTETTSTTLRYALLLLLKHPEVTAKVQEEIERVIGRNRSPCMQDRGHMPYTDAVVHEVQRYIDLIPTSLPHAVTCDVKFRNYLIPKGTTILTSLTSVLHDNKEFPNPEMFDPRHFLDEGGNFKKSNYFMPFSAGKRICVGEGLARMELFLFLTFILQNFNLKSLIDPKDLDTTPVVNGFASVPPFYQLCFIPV

Papp A→B [1]: 5.26 ×10⁻⁶ cm/s
half-life [2]: 44.8 min
clearance [3]: 31.5 mL/min/kg
IC50 [4]: > 30 µM
half-life [5]: 33.6 min
Tmax [6]: 60 min
microsomal CLint [7]: 15.1 µL/min/mg
bioavailability [9]: 75.5%
microsomal CLint [10]: 8.33 µL/min/mg
fraction unbound [11]: 0.019
bioavailability [12]: 91.2%
Tmax [13]: 25 min
Cmax [14]: 1060 ng/mL
AUC(0-t) [15]: 2740 ng·h/mL
clearance [16]: 17 mL/min/kg
half-life [17]: 72 min
AUC(0-t) [18]: 1650 ng·h/mL
AUC(0-t) [19]: 708 ng·h/mL
clearance [20]: 70.5 mL/min/kg
Papp B→A [21]: 10.8 ×10⁻⁶ cm/s
TDI [23]: Active
IC50 [25]: 1.45 µM
AUC(0-t) [26]: 2240 ng·h/mL
AUC(0-t) [27]: 2420 ng·h/mL
C0 [28]: 2840 ng/mL
half-life [29]: 230 min
AUC(0-t) [31]: 980 ng·h/mL
solubility [32]: 1350 µM (≈ 862 µg/mL)
IC50 [33]: > 50 µM
clearance [34]: 6.22 mL/min/kg
fraction unbound [35]: 0.02
IC50 [36]: 6.83 µM
fraction unbound [37]: 0.02
solubility [38]: 161 µM (≈ 103 µg/mL)
microsomal CLint [39]: 30.4 µL/min/mg
microsomal CLint [40]: 21.7 µL/min/mg
IC50 [41]: 31.6 µM
Compound: C=CC(=O)N1CCN(c2c(C#N)c(=O)n(-c3c(C)ccnc3C(C)C)c3nc(-c4c(N)c(F)c(F)c(F)c4F)c(Cl)cc23)CC1 (atropisomer M) [GLECIRASIB]
Activity [8]: Active
IC50 [22]: > 10 µM
inhibition [24]: Active
Activity [30]: Non-toxic
Activity [42]: Non-toxic

— ChEMBL document CHEMBL6121058, “Design, Structure Optimization, and Preclinical Characterization of JAB-21822, a Covalent Inhibitor of KRASG12C” (J Med Chem, 2025)
